Measured values taken from patent publication US8987260B2, “Pharmaceutical compounds” (F. Hoffmann-La Roche AG, priority 2006, dated 2015).

Columns and labels:
PI3K = tested on: T1, PI3K; type: biochemical; conditions: purified recombinant enzyme, ATP 1 uM, 1 h room temperature; read-out: IC50 against PI3K
T1 construct: other: purified recombinant enzyme, ATP 1 uM, 1 h room temperature
Method: The compound was serially diluted in 100% DMSO. The kinase reaction was incubated for 1 h at room temperature, and the reaction was terminated by the addition of PBS. IC50 values were subsequently determined using sigmoidal dose-response curve fit (variable slope).

range of cell lines = test: Cellular proliferation inhibition (Alamar Blue); type: cell-based; conditions: 96 h; 4 days incubation, range of cell lines utilized
Method: Cells were seeded at optimal density in a 96 well plate and incubated for 4 days in the presence of test compound. Alamar Blue™ was subsequently added to the assay medium, and cells were incubated for 6 h before reading at 544 nm excitation, 590 nm emission. EC50 values were calculated using a sigmoidal dose response curve fit.

CYP450 1A2 = target: T2, CYP450 1A2 (Homo sapiens, UniProt P05177); test: Cytochrome P450 inhibition; type: in vitro ADME; conditions: top concentration 100 uM
T2 sequence (P05177 1-516): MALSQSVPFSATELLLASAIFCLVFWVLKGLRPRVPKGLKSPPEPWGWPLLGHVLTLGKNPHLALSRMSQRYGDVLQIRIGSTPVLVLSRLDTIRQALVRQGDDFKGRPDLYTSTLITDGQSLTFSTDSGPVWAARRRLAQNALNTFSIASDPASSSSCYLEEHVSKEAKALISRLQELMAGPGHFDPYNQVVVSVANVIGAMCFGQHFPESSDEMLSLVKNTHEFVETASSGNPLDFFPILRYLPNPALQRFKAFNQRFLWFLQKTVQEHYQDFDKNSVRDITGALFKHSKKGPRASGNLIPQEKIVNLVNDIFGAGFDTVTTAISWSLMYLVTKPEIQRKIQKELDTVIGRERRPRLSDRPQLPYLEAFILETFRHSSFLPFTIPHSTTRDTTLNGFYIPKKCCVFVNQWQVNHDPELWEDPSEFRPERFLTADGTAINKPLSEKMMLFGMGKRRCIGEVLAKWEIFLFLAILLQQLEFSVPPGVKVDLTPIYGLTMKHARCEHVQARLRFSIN
Excerpt: (§1) Standard inhibitors (furafylline, sulfaphenazole, tranylcypromine, quinidine, ketoconazole) were used as controls. Plates were read using a BMG LabTechnologies PolarStar in fluorescence mode.

CYP450 2C19 = CYP450 2C19 (Homo sapiens, UniProt P33261); test: Cytochrome P450 inhibition; type: in vitro ADME; conditions: top concentration 100 uM
CYP450 2C19, sequence (P33261 whole entry): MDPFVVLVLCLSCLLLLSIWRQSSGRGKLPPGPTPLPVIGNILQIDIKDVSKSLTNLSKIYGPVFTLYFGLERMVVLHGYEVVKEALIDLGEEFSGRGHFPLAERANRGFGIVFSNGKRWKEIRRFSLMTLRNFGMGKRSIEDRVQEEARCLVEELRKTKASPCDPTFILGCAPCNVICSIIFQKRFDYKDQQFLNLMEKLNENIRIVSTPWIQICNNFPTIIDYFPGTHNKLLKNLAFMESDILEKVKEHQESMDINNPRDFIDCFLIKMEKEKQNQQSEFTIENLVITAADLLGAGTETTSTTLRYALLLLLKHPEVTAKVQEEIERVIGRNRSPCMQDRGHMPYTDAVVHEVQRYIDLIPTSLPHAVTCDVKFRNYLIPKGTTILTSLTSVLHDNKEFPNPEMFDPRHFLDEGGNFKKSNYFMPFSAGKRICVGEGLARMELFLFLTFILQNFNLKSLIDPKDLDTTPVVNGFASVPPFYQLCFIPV
Excerpt: as §1

CYP450 2C9 = CYP450 2C9 (Homo sapiens, UniProt P11712); test: Cytochrome P450 inhibition; type: in vitro ADME; conditions: top concentration 100 uM
CYP450 2C9, sequence (P11712 whole entry): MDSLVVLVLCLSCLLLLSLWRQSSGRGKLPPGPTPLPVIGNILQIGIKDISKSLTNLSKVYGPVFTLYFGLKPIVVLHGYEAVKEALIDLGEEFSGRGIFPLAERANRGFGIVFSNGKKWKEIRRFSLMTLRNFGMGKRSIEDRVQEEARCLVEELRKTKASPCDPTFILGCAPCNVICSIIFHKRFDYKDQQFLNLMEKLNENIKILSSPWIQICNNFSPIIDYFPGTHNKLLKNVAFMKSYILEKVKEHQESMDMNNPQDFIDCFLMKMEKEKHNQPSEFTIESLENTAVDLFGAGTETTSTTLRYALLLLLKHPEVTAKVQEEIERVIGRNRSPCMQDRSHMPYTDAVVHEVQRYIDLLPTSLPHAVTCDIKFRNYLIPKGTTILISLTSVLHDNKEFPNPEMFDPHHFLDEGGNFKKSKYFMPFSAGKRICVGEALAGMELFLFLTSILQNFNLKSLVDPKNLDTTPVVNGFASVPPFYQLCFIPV
Excerpt: as §1

CYP450 2D6 = CYP450 2D6 (Homo sapiens, UniProt P10635); test: Cytochrome P450 inhibition; type: in vitro ADME; conditions: top concentration 100 uM
CYP450 2D6, sequence (P10635 whole entry): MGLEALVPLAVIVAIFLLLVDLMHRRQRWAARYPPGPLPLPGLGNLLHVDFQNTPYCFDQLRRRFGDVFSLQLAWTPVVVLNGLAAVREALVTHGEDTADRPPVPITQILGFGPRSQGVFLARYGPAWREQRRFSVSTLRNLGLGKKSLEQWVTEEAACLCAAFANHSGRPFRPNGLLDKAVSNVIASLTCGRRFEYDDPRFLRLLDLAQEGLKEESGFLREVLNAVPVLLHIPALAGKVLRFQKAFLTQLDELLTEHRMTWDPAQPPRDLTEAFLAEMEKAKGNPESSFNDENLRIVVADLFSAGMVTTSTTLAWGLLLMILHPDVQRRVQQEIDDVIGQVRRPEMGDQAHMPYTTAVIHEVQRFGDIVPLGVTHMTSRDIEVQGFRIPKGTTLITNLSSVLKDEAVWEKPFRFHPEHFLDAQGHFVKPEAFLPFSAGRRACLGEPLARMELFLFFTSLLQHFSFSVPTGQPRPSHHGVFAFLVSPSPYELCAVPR
Excerpt: as §1

CYP450 3A4 = CYP450 3A4 (Homo sapiens, UniProt P08684); test: Cytochrome P450 inhibition; type: in vitro ADME; conditions: top concentration 100 uM
CYP450 3A4, sequence (P08684 whole entry): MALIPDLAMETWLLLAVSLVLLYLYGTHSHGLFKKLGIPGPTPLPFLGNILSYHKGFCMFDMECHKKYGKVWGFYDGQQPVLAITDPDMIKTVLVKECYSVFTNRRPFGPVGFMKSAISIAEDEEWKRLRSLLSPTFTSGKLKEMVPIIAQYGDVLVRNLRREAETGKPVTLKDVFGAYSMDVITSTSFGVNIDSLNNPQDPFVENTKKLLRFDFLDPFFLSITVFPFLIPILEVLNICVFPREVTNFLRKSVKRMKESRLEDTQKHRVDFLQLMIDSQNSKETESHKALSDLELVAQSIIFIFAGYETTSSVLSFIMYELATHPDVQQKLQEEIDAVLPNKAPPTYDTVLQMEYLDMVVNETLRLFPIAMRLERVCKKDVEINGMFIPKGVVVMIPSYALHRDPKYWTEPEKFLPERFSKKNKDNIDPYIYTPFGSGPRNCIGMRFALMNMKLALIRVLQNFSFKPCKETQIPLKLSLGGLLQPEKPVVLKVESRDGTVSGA
Excerpt: as §1

[1] = Plasma protein binding (equilibrium dialysis); type: in vitro ADME; conditions: 10% plasma (v/v in buffer), 37° C., read-out: fraction unbound (Fu)
Method: Solutions of test compound (5 um, 0.5% final DMSO concentration) were prepared in buffer and 10% plasma (v/v in buffer). A 96 well HT dialysis plate was assembled so that each well was divided in two by a semi-permeable cellulose membrane. The buffer solution was added to one side of the membrane and the plasma solution to the other side; incubations were then conducted at 37° C. over 2 h in triplicate. The cells were subsequently emptied, and the solutions for each batch of compounds were combined into two groups (plasma-free and plasma-containing) then analysed by LC-MSMS using two sets of calibration standards for plasma-free (6 points) and plasma-containing solutions (7 points).

[2] = Aqueous solubility at physiological pH; type: physicochemical; conditions: aqueous medium at physiological pH, pH 7.4, aqueous buffer
in vitro = conditions: human, Caco-2
Method: Assessment of compound permeability was subsequently conducted. The compounds were applied to the apical surface (A) of cell monolayers and compound permeation into the basolateral (B) compartment was measured. This was performed in the reverse direction (B-A) to investigate active transport. A permeability coefficient value, Papp, for each compound, a measure of the rate of permeation of the compound across the membrane, was calculated.

SMILES: CS(=O)(=O)N1CCN(Cc2cc3nc(-c4cccc5[nH]ncc45)nc(N4CCOCC4)c3s2)CC1 [compound of the invention, 2-(1H-Indazol-4-yl)-6-(4-methanesulfonyl-piperazin-1-ylmethyl)-4-morpholin-4-yl-thieno[3,2-d]pyrimidine]
- EC50 (range of cell lines): ≤ 50 µM
- IC50 (CYP450 1A2): ≥ 5 µM
- IC50 (CYP450 2C19): ≥ 5 µM
- IC50 (CYP450 2C9): ≥ 5 µM
- IC50 (CYP450 2D6): ≥ 5 µM
- IC50 (CYP450 3A4): ≥ 5 µM
- fraction unbound at 2 h, 5 um [1]: ≥ 0.1
- solubility [2]: > 100 µM
- Papp (in vitro): ≥ 1 ×10⁻⁶ cm/s
